The record followed here is ChEMBL document CHEMBL3272086, “Antimalarials. 9. Methylthio- and methylsulfonyl-substituted 9-phenanthrenemethanols” (1976).

For assay [1], the system named is Plasmodium berghei. Nature of the assay: Antimalarial activity against Plasmodium berghei infected in mouse assessed as cure from disease at 320 mg/kg, sc administered 72 hrs post infection as single dose measured post 60 days. Further details: dose 320 mg/kg. It is filed as functional, organism-based.
The test system of assay [2] is Plasmodium berghei. Nature of the assay: Antimalarial activity against Plasmodium berghei infected in mouse assessed as change in mean survival time at 20 mg/kg, sc administered 72 hrs post infection as single dose (reference value: 6.2 days). The conditions noted are these: route subcutaneous. It is filed as functional.
Assay [3] relates to Plasmodium berghei. Nature of the assay: Antimalarial activity against Plasmodium berghei infected in mouse assessed as change in mean survival time at 80 mg/kg, sc administered 72 hrs post infection as single dose (reference value: 6.2 days). The conditions noted are these: route subcutaneous. It is filed as functional.
Assay [4] deals with Plasmodium berghei. Nature of the assay: Antimalarial activity against Plasmodium berghei infected in mouse assessed as change in mean survival time at 40 mg/kg, sc administered 72 hrs post infection as single dose (reference value: 6.2 days). It is filed as functional. To be noted: route subcutaneous.
Assay [5] relates to Plasmodium berghei. Nature of the assay: Antimalarial activity against Plasmodium berghei infected in mouse assessed as change in mean survival time at 160 mg/kg, sc administered 72 hrs post infection as single dose (reference value: 6.2 days). It is filed as functional. The conditions noted are these: route subcutaneous.
Assay [6] relates to Plasmodium berghei. Nature of the assay: Antimalarial activity against Plasmodium berghei infected in mouse assessed as cure from disease at 160 mg/kg, sc administered 72 hrs post infection as single dose measured post 60 days. The class given is functional, organism-based. Further details: dose 160 mg/kg.
The test system of assay [7] is Plasmodium berghei. Nature of the assay: Antimalarial activity against Plasmodium berghei infected in mouse assessed as change in mean survival time at 320 mg/kg, sc administered 72 hrs post infection as single dose (reference value: 6.2 days). To be noted: route subcutaneous. It is filed as functional.

Active and inactive are the calls of the source. The rule behind the calls is not given here.

For the compound `CCCCN(CCCC)CC(O)c1cc2cc(SC)ccc2c2cc(SC)ccc12.Cl` (stereo not given), the outcome in the assay with Plasmodium berghei [1] was Active. Besides, the MST was found to be 0.7 days in the assay on Plasmodium berghei [2], 11.5 days with Plasmodium berghei [3], 5.9 days with Plasmodium berghei [4] and 16.1 days in the assay with Plasmodium berghei [5].

As for `CCCCN(CCCC)CC(O)c1cc2cc(SC)ccc2c2cc(Cl)c(Cl)cc12.Cl` (stereo not given), the results for the MST in the assay with Plasmodium berghei [2] and with Plasmodium berghei [4] were 9.1 days and 10.3 days, respectively. The result in the assay with Plasmodium berghei [6] was Active.

As for `CCCCN(CCCC)CC(O)c1cc2cc(SC)ccc2c2c(Cl)c(Cl)ccc12.Cl` (stereo not given), the MST in the assay on Plasmodium berghei [2] was determined as 9.3 days; with Plasmodium berghei [4], 10.7 days.

On to `CCCCN(CCCC)CC(O)c1cc2cc(Br)ccc2c2cc(SC)ccc12.Cl` (stereo not given), for which the MST with Plasmodium berghei [2] is 2.8 days; with Plasmodium berghei [3], 9.5 days; with Plasmodium berghei [4], 8.6 days.

`CCCCN(CCCC)CC(O)c1cc2cc(S(C)(=O)=O)ccc2c2cc(Cl)c(Cl)cc12.Cl` (stereo not given): in the assay with Plasmodium berghei [1], the outcome was Active. The MST with Plasmodium berghei [2] stood at 4.9 days; with Plasmodium berghei [4], 8.5 days.

Take `CCCCN(CCCC)CC(O)c1cc2cc(S(C)(=O)=O)ccc2c2c(Cl)c(Cl)ccc12.Cl` (stereo not given): the result in the assay with Plasmodium berghei [1] was Active. Moreover, the MST came out at 4.7 days in the assay with Plasmodium berghei [2], 14.9 days in the assay on Plasmodium berghei [3] and 7.7 days in the assay with Plasmodium berghei [4].

With `CCCCN(CCCC)CC(O)c1cc2cc(Br)ccc2c2cc(S(C)(=O)=O)ccc12.Cl` (stereo not given), the figures for the MST in the assay on Plasmodium berghei [2], in the assay with Plasmodium berghei [3] and in the assay on Plasmodium berghei [4] were 0.6 days, 10.8 days and 1.2 days, respectively.

As to `CCCCN(CCCC)CC(O)c1cc2cc(Cl)cc(Cl)c2c2cc(SC)ccc12.Cl` (stereo not given), the result in the assay on Plasmodium berghei [1] and with Plasmodium berghei [6] was Active. Also, the MST in the assay with Plasmodium berghei [2] came out at 10.5 days.

For the compound `CCCCN(CCCC)CC(O)c1cc2cc(S(C)(=O)=O)ccc2c2cc(S(C)(=O)=O)ccc12.Cl` (stereo not given), the MST in the assay with Plasmodium berghei [7] amounted to 0.3 days; in the assay on Plasmodium berghei [3], 0.3 days; in the assay on Plasmodium berghei [4], 0.1 days; in the assay on Plasmodium berghei [5], 0.3 days.
